# Experimental data published in ChEMBL document CHEMBL5104178, “Nitroimidazopyrazinones with Oral Activity against Tuberculosis and Chagas Disease in Mouse Models of Infection” (J Med Chem, 2022).
# Experiments:
# Mycobacterium avium = experiment: Antimycobacterial activity against Mycobacterium avium ATCC 25291 assessed as bacterial growth inhibition incubated for 6 days under normoxic condition by resazurin microtiter assay; type: functional; settings: ATCC 25291, 144 h, time 6 day
# Trypanosoma cruzi [1] = experiment: Antitrypanosomal activity against Trypanosoma cruzi Tulahuen amastigotes infected in mouse 3T3 cells assessed as inhibition of parasite growth incubated for 48 hrs by […] staining based analysis; type: functional, organism-based; settings: for IC90: NIH3T3, time 48 hrs
# [2] = Plasma protein binding in mouse; type: ADME, cell-free; settings: read-out: PPB (converted)
# [3] = test system: Mycobacterium tuberculosis; experiment: Antimycobacterial activity against Mycobacterium tuberculosis infected in BALB/c mouse assessed as log reduction in bacterial load in lung by measuring colony forming unit at 12.5 to 50 mg/kg, po administered 5 days per week for 3 weeks starting from day 10 post infection (reference value: 8.8 x 10^3 CFU); type: functional; settings: dose 12.5-50 mg/kg
# [4] = Half life in CD-1 mouse at 5 mg/kg, iv administered as DMSO/PEG400 formulation measured upto 24 hrs by LC-MS/MS analysis; type: ADME, organism-based; settings: in vivo
# [5] = Clearance in CD-1 mouse at 5 mg/kg, iv administered as DMSO/PEG400 formulation measured upto 24 hrs by LC-MS/MS analysis; type: ADME, organism-based; settings: in vivo
# [6] = Stability in mouse plasma assessed as compound remaining measured after 2 hrs; type: ADME, cell-free; settings: read-out: Stability
# [7] = Solubility of compound in water at pH 7 by LC-UV analysis; type: physicochemical
# [8] = Metabolic stability in mouse microsomes assessed as compound remaining measured after 2 hrs; type: ADME, Microsome; settings: read-out: Stability
# [9] = Solubility of compound in water at 0.1 M HCl at pH 1 by LC-UV analysis; type: physicochemical; settings: 0.1 M HCl in water
# [10] = Tmax in CD-1 mouse at 20 mg/kg, po administered as DMSO/PEG400 formulation measured upto 24 hrs by LC-MS/MS analysis; type: ADME, organism-based; settings: in vivo
# [11] = Stability in human plasma assessed as compound remaining measured after 2 hrs; type: ADME, cell-free; settings: read-out: Stability
# [12] = Oral bioavailability in CD-1 mouse at 20 mg/kg administered as DMSO/PEG400 formulation measured upto 24 hrs by LC-MS/MS analysis; type: ADME, organism-based; settings: in vivo
# [13] = Toxicity in BALB/c mouse infected with Mycobacterium tuberculosis assessed as body weight loss at 12.5 to 50 mg/kg, po administered 5 days per week for 3 weeks starting from day 10 post infection; type: organism-based; settings: in vivo, 120 h, dose 12.5-50 mg/kg, time 5 day
# [14] = test system: Mycolicibacterium smegmatis; experiment: Antimycobacterial activity against Mycobacterium smegmatis mc2155 ATCC 700084 assessed as bacterial growth inhibition incubated for 24 hrs under normoxic condition by resazurin microtiter assay; type: functional
# [15] = Metabolic stability in human microsomes assessed as compound remaining measured after 2 hrs; type: ADME, Microsome; settings: read-out: Stability
# [16] = AUC(0 to 24 hrs) in CD-1 mouse at 20 mg/kg, po administered as DMSO/PEG400 formulation measured upto 24 hrs by LC-MS/MS analysis; type: ADME, organism-based; parameters: dose 20 mg/kg, time < 24 hrs, route po; settings: in vivo
# [17] = Half life in CD-1 mouse at 20 mg/kg, po administered as DMSO/PEG400 formulation measured upto 24 hrs by LC-MS/MS analysis; type: ADME, organism-based; settings: in vivo
# [18] = test system: Mycobacterium tuberculosis; experiment: Antimycobacterial activity against Mycobacterium tuberculosis H37Ra ATCC 25177 assessed as bacterial growth inhibition incubated for 6 days under normoxic condition by resazurin microtiter assay; type: functional; settings: H37Ra ATCC 25177, 144 h, time 6 day
# [19] = Volume of distribution at steady state in CD-1 mouse at 5 mg/kg, iv administered as DMSO/PEG400 formulation measured upto 24 hrs by LC-MS/MS analysis; type: ADME, organism-based; settings: in vivo, read-out: Vdss
# Trypanosoma cruzi [20] = experiment: Antitrypanosomal activity against Trypanosoma cruzi Tulahuen amastigotes infected in mouse 3T3 cells assessed as reduction in parasite growth at Emax concentration incubated for 48 hrs by […] staining based analysis; type: functional; parameters: scale not given: the % may be the effect or the level left
# [21] = Toxicity in BALB/c mouse infected with Mycobacterium tuberculosis assessed as mortality at 12.5 to 50 mg/kg, po administered 5 days per week for 3 weeks starting from day 10 post infection; type: organism-based; settings: in vivo, 504 h, dose 12.5-50 mg/kg
# [22] = Cmax in CD-1 mouse at 20 mg/kg, po administered as DMSO/PEG400 formulation measured upto 24 hrs by LC-MS/MS analysis; type: ADME, organism-based; parameters: dose 20 mg/kg, time < 24 hrs, route po; settings: in vivo
# [23] = Solubility of compound in water by LC-UV analysis; type: physicochemical; settings: water; read-out: solubility
# [24] = Plasma protein binding in human; type: ADME, cell-free; settings: read-out: PPB (converted)
# [25] = Cytotoxicity against mouse 3T3 cells; type: toxicity, cell-based; settings: NIH3T3 cells
# Trypanosoma cruzi [26] = experiment: Antitrypanosomal activity against bioluminescent Trypanosoma cruzi CL Brener trypomastigotes infected in BALB/c mouse assessed as reduction in parasite burden at 100 mg/kg, po administered once daily for 5 days starting from 14 days post infection and measured on 36 days post infection; type: functional; parameters: scale not given: the % may be the effect or the level left; settings: time 22 day
# [27] = Selectivity index, ratio of CC50 for cytotoxicity against mouse 3T3 cells to IC50 for antitrypanosomal activity against Trypanosoma cruzi Tulahuen amastigotes infected in mouse 3T3 cells; type: toxicity, cell-based; settings: read-out: Ratio CC50/IC50
# [28] = test system: Mycobacterium tuberculosis; experiment: Substrate activity at Mycobacterium tuberculosis Ddn expressed in Escherichia coli BL21 (DE3) assessed as oxidation of F420H2 by measuring Kcat/Km by spectrophotometric analysis
# [29] = test system: Mycobacterium tuberculosis; experiment: Antimycobacterial activity against Mycobacterium tuberculosis infected in BALB/c mouse assessed as log reduction in bacterial load in lung by measuring colony forming unit at 25 mg/kg, po administered 5 days per week for 3 weeks starting from day 10 post infection (reference value: 8.8 x 10^3 CFU); type: functional
# [30] = test system: Mycobacterium tuberculosis; experiment: Antimycobacterial activity against Mycobacterium tuberculosis infected in BALB/c mouse assessed as log reduction in bacterial load in lung by measuring colony forming unit at 50 mg/kg, po administered 5 days per week for 3 weeks starting from day 10 post infection (reference value: 8.8 x 10^3 CFU); type: functional
# [31] = AUC(0 to 8 hrs) in CD-1 mouse at 20 mg/kg, po administered as DMSO/PEG400 formulation measured upto 24 hrs by LC-MS/MS analysis; type: ADME, organism-based; parameters: dose 20 mg/kg, time < 24 hrs, route po; settings: in vivo
# [32] = test system: Mycobacterium tuberculosis; experiment: Antimycobacterial activity against Mycobacterium tuberculosis infected in BALB/c mouse assessed as log reduction in bacterial load in lung by measuring colony forming unit at 12.5 mg/kg, po administered 5 days per week for 3 weeks starting from day 10 post infection (reference value: 8.8 x 10^3 CFU); type: functional
# [33] = test system: Mycobacterium tuberculosis; experiment: Antimycobacterial activity against Mycobacterium tuberculosis H37Rv ATCC 27294 assessed as bacterial growth inhibition incubated for 5 days under normoxic condition by resazurin microtiter assay; type: functional; settings: H37Rv ATCC 27294, 120 h, time 5 day
# [34] = test system: Mycobacterium tuberculosis; experiment: Antimycobacterial activity against Mycobacterium tuberculosis H37Rv ATCC 27294 assessed as bacterial growth inhibition incubated for 5 days under hypoxic condition by resazurin microtiter assay; type: functional; settings: H37Rv ATCC 27294, 120 h, time 5 day
# [35] = test system: Mycobacterium tuberculosis; experiment: Substrate activity at Mycobacterium tuberculosis Ddn expressed in Escherichia coli BL21 (DE3) assessed as oxidation of F420H2 by measuring Kcat by spectrophotometric analysis
# [36] = test system: Mycobacterium tuberculosis; experiment: Substrate activity at Mycobacterium tuberculosis Ddn expressed in Escherichia coli BL21 (DE3) assessed as oxidation of F420H2 by measuring Km by spectrophotometric analysis
# [37] = test system: Mycobacterium tuberculosis; experiment: Antimycobacterial activity against Mycobacterium tuberculosis infected in BALB/c mouse assessed as log reduction in bacterial load in lung by measuring colony forming unit at 15 mg/kg, po administered 5 days per week for 3 weeks starting from day 10 post infection (reference value: 8.8 x 10^3 CFU); type: functional
# Trypanosoma cruzi [38] = experiment: Antitrypanosomal activity against bioluminescent Trypanosoma cruzi CL Brener trypomastigotes infected in BALB/c mouse assessed as reduction in parasite burden at 50 mg/kg, po administered twice daily for 5 days starting from 14 days post infection and measured on 36 days post infection; type: functional; parameters: scale not given: the % may be the effect or the level left; settings: time 22 day
Structure (SMILES),MIC (Mycobacterium avium) [µg/mL],IC90 (Trypanosoma cruzi [1]) [µM],fraction unbound [2],half-life [4] [h],clearance [5] [mL/min/kg],Tmax [10] [h],bioavailability [12] [%],Activity [13],MIC [14] [µg/mL],AUC(0-t) at 24 h [16] [ng·h/mL],half-life [17] [h],MIC [18] [µg/mL],Vd [19] [L/kg],Activity (Trypanosoma cruzi [20]) [%],Activity [21],Cmax [22] [ng/mL],solubility [23] [µM],fraction unbound [24],CC50 [25] [µM],MIC [33] [µg/mL],also measured
O=c1c2nc([N+](=O)[O-])cn2ccn1Cc1ccc(OC(F)(F)F)cc1,> 32,0.72,< 0.01,3.8,6.36,5.3,98,Non-Toxic,> 32,38900,4.8,0.031,2.2,100,Non-Toxic,3300,< 1,< 0.01,> 73,,log(activity) [3]: 0.21; remaining at 2 h [6]: > 99%; solubility [7]: < 1 µM; remaining at 2 h [8]: > 99%; solubility [9]: < 1 µM; remaining at 2 h [11]: 98%; remaining at 2 h [15]: > 99%
O=C(Cn1ccnc1[N+](=O)[O-])NCc1ccccc1 [BENZNIDAZOLE],,28,,,,,,,,,,,,100,,,,,> 127,,"IC50 (Trypanosoma cruzi [1]; NIH3T3, 48 h): 7.6 µM; Activity (Trypanosoma cruzi [26]): 99.3%; selectivity ratio [27]: > 17"
O=c1c2nc([N+](=O)[O-])cn2ccn1Cc1cccc(C(F)(F)F)c1,> 32,,0.08,1.9,7.66,2.7,64,Non-Toxic,> 32,,,≤ 0.016,1.2,,Non-Toxic,3400,2.9,0.04,,0.063,kcat/Km [28]: 1650 M⁻¹ s⁻¹; log(activity) [29]: 1.1; log(activity) [30]: 1.7; AUC(0-t) at 24 h [31]: 20800 ng·h/mL; log(activity) [32]: 0.75; MIC [34]: 0.25 µg/mL; kcat [35]: 1.6 10^-2/s; Km [36]: 9.4 µM
CO[C@H]1/C=C/O[C@@]2(C)Oc3c(C)c(O)c4c(O)c(c(/C=N/N5CCN(C)CC5)c(O)c4c3C2=O)NC(=O)/C(C)=C\C=C\[C@H](C)[C@H](O)[C@@H](C)[C@@H](O)[C@@H](C)[C@H](OC(C)=O)[C@@H]1C [RIFAMPIN],4,,,,,,,,4,,,< 0.016,,,,,,,,0.005,log(activity) [37]: 2.7; MIC [34]: 0.08 µg/mL
O=c1c2nc([N+](=O)[O-])cn2ccn1Cc1ccc(-c2cccnc2)cc1,,,,1.5,22.9,0.67,92,,,9260,0.77,,2.6,,,4500,,,,,Activity (Trypanosoma cruzi [38]): 99.4%
